Tests used:
mTOR = biological target: T1, mTOR (Homo sapiens, UniProt P42345); assay: Biochemical assay for m-TOR by TR-FRET; details: 8 μM ATP, 400 nM GFP-4EBP1, 0.5 nM mTOR
T1 construct: purchased Invitrogen Corporation (Carlsbad/CA, USA) PV4753
Method in brief: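 mTOR (0.5 nM) was incubated at rt with ATP (8 μM final) and GFP-4EBP1 (400 nM final) in 50 mM HEPES pH 7.5, 10 mM MnCl2, 50 mM NaCl, 1 mM EGTA, 1 mM DTT. EDTA stop with Tb3+-anti-p4EBP1 [pThr46] antibody (0.5 nM); TR-FRET read 15 min later.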

[1] = system: S6 Ribosomal Protein phosphorylation Ser235/236 in TSC1 null mouse embryo fibroblast (MEF) cells; assay: Reverse protein array assay, S6 Ribosomal Protein phosphorylation Ser235/236 in TSC1 null MEF cells; type: cell-based; details: 1 h, pS6 ribosomal protein Ser235/236, 60 minutes incubation, read-out: p-S6 IC50
Method in brief: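 TSC1−/− MEFs, seeded and held ≥20 h at 37 °C/5% CO2, were exposed to 8-step serial compound dilutions (0.02% DMSO final; DMSO vehicle control) for 60 min at 37 °C. Cells were then lysed on ice for 10 min and lysates spotted onto reverse protein array chips.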

PI3K delta = biological target: T2, PI3K delta (Homo sapiens, UniProt O00329); assay: PI3K delta kinase assay (Kinase-Glo luminescence); type: biochemical
T2 construct: for the full-length p110-d subunit are generated and fused by overlapping PCR; p85(iSH2) fusion partner (see partner chain) (N); His tag (C); made in house; host or cells: baculovirus; Tn5 (Trichoplusia ni) or TiniPro insect cells
Method in brief: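 ATP depletion was measured by Kinase-Glo luminescence after a 60-minute room-temperature reaction containing 1 μM ATP, 10 μg/mL PI and 10 nM His-tagged p85(iSH2)-linker-p110δ (BV-1060). Buffer: Tris pH 7.5, 3 mM MgCl2, 50 mM NaCl, 0.05% CHAPS, 1 mM DTT. IC50 values came from four-parameter fits over eight concentrations.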

T2 sequence (O00329 with tags, fused parts or gaps limits assumed): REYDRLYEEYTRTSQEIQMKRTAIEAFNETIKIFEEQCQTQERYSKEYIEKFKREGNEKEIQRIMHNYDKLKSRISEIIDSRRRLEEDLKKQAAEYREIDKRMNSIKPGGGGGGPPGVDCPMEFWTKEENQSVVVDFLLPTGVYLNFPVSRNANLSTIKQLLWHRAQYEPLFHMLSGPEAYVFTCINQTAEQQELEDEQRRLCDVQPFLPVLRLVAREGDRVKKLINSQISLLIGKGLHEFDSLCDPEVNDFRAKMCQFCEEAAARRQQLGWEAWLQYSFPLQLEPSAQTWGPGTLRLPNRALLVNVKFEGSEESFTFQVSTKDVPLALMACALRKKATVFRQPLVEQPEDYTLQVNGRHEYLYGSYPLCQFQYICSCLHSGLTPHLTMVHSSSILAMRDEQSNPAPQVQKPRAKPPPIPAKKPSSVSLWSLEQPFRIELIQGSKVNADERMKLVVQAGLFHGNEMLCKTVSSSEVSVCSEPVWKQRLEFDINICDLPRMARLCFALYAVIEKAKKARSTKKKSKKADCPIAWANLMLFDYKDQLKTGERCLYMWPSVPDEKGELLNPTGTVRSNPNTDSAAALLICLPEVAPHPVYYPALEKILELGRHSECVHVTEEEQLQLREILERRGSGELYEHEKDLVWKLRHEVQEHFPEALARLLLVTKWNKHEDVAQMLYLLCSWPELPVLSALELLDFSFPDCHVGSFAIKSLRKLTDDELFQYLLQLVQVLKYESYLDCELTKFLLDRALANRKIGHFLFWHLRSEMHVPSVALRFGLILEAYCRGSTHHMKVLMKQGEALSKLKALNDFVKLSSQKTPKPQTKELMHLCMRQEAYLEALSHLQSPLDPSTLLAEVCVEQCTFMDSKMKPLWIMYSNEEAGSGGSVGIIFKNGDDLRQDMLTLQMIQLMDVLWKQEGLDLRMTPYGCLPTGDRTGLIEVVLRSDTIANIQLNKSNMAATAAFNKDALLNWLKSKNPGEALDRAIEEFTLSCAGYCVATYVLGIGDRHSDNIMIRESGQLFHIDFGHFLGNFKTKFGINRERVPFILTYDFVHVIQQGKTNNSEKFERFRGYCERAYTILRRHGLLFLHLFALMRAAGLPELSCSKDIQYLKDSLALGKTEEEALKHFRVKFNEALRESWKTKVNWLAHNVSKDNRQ
T1 sequence (P42345 1360-2549 limits assumed): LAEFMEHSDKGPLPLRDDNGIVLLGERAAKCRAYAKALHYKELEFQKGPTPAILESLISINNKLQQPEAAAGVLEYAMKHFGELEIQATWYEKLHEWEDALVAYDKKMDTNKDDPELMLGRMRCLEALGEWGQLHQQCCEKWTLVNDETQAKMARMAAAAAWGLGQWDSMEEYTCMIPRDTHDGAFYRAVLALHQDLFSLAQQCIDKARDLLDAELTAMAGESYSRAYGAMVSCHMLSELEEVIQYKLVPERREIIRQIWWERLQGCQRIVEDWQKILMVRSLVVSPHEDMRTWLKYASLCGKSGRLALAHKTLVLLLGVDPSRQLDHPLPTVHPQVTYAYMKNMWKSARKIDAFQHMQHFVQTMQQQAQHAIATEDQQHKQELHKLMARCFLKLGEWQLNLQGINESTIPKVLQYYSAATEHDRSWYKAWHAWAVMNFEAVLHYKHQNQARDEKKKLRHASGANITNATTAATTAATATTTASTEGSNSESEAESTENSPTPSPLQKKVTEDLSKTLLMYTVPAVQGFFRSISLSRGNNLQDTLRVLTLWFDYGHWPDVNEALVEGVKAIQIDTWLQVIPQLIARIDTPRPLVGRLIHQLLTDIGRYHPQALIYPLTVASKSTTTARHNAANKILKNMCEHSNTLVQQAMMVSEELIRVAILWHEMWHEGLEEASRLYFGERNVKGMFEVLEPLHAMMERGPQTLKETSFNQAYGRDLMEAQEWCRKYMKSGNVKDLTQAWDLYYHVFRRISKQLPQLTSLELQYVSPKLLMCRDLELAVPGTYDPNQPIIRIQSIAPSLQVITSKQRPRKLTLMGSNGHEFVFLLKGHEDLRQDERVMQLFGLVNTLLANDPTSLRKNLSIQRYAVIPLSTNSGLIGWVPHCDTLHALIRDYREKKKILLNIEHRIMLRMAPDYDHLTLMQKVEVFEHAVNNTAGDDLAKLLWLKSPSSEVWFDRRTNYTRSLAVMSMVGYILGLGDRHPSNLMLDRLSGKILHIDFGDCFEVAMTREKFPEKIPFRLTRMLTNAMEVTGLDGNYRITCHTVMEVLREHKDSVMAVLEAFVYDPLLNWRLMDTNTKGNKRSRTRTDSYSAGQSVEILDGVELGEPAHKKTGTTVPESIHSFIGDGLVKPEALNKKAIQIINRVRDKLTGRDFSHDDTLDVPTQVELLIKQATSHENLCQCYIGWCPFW

IC50 (mTOR) | IC50 (PI3K delta) | SMILES | IC50 [1]
4 nM | 13 nM | CNc1ccc(-c2ccc3ncc4c(c3c2)n(-c2cn(C)nc2C)c(=O)n4C)cn1 [Example 118.2, 1-(1,3-Dimethyl-1H-pyrazol-4-yl)-3-methyl-8-(6-methylamino-pyridin-3-yl)-1,3-dihydro-imidazo[4,5-c]quinolin-2-one] | 1 nM
58 nM | 25 nM | CCNc1ncc(-c2ccc3ncc4c(c3c2)n(-c2cn(C)nc2C)c(=O)n4C)cc1COCC [Example 167, 1-(1,3-Dimethyl-1H-pyrazol-4-yl)-8-(5-ethoxymethyl-6-ethylamino-pyridin-3-yl)-3-methyl-1,3-dihydro-imidazo[4,5-c]quinolin-2-one] | 7 nM
< 3 nM | 318 nM | Cc1nn(C)cc1-n1c(=O)n(C)c2cnc3ccc(-c4ccc(-n5cccn5)nc4)cc3c21 [Example 79, 1-(1,3-Dimethyl-1H-pyrazol-4-yl)-3-methyl-8-(6-pyrazol-1-yl-pyridin-3-yl)-1,3-dihydro-imidazo[4,5-c]quinolin-2-one] | 5 nM
10 nM | < 3 nM | COc1ncc(-c2ccc3ncc4c(c3c2)n(-c2cn(C)nc2C)c(=O)n4C)c(OC)n1 [Example 234.2, 8-(2,4-Dimethoxy-pyrimidin-5-yl)-1-(1,3-dimethyl-1H-pyrazol-4-yl)-3-methyl-1,3-dihydro-imidazo[4,5-c]quinolin-2-one] | 1 nM
934 nM | 58 nM | COc1ncc(-c2ccc3ncc4c(c3c2)n(-c2cn(C)nc2C)c(=O)n4C)cc1C#N [Example 132, 5-[1-(1,3-Dimethyl-1H-pyrazol-4-yl)-3-methyl-2-oxo-2,3-dihydro-1H-imidazo[4,5-c]quinolin-8-yl]-2-methoxy-nicotinonitrile] | 3 nM
14 nM | 8 nM | Cc1nn(C)cc1-n1c(=O)n(C)c2cnc3ccc(-c4cncc(OC(C)C)c4)cc3c21 [Example 58.1, 1-(1,3-Dimethyl-1H-pyrazol-4-yl)-8-(5-isopropoxy-pyridin-3-yl)-3-methyl-1,3-dihydro-imidazo[4,5-c]quinolin-2-one] | 3 nM
21 nM | 17 nM | COc1cc(-c2ccc3ncc4c(c3c2)n(-c2cn(C)nc2C)c(=O)n4C)cnc1CO [Example 193, 1-(1,3-Dimethyl-1H-pyrazol-4-yl)-8-(6-hydroxymethyl-5-methoxy-pyridin-3-yl)-3-methyl-1,3-dihydro-imidazo[4,5-c]quinolin-2-one] | 5.53 nM
129 nM | 26 nM | CCNc1cc(-c2ccc3ncc4c(c3c2)n(-c2c(C)nn(CCOC)c2C)c(=O)n4C)cnc1OC [Example 90.2, 8-(5-Ethylamino-6-methoxy-pyridin-3-yl)-1-[1-(2-methoxy-ethyl)-3,5-dimethyl-1H-pyrazol-4-yl]-3-methyl-1,3-dihydro-imidazo[4,5-c]quinolin-2-one] | 35 nM
30 nM | 43 nM | Cc1nn(C)cc1-n1c(=O)n(C)c2cnc3ccc(-c4cnc5c(c4)ncn5C)cc3c21 [Example 74, 1-(1,3-Dimethyl-1H-pyrazol-4-yl)-3-methyl-8-(3-methyl-3H-imidazo[4,5-b]pyridin-6-yl)-1,3-dihydro-imidazo[4,5-c]quinolin-2-one] | 23 nM
33 nM | 15 nM | COc1ccc(-c2ccc3ncc4c(c3c2)n(-c2cn(C(C)C)nc2C)c(=O)n4C)cn1 [Example 2.8, 1-(1-Isopropyl-3-methyl-1H-pyrazol-4-yl)-8-(6-methoxy-pyridin-3-yl)-3-methyl-1,3-dihydro-imidazo[4,5-c]quinolin-2-one] | 21 nM

SMILES | IC50 (mTOR) | IC50 (PI3K delta) | IC50 [1]
Cc1nn(CC(=O)N(C)C)c(C)c1-n1c(=O)n(C)c2cnc3ccc(-c4cncc(OC5CCC5)c4)cc3c21 [Example 60.2, 2-{4-[8-(5-Cyclobutoxy-pyridin-3-yl)-3-methyl-2-oxo-2,3-dihydro-imidazo[4,5-c]quinolin-1-yl]-3,5-dimethyl-pyrazol-1-yl}-N,N-dimethyl-acetamide] | 703 nM | 694 nM | 11 nM
